Data reported in the METLIN SMRT retention time set (Domingo-Almenara et al. 2019).

Assay: gradient 5% acetonitrile 3 min, to 50% in 2 min, to 85% in 15 min, held 3 min, 100 µL/min
Conditions: column: Zorbax Extend-C18 2.1 x 50 mm; eluents: water / acetonitrile, 0.1% formic acid
Summary of the method: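 Data were gathered over 3 months by HPLC coupled to a quadrupole time-of-flight mass spectrometer, operated in positive and negative ionization mode. Mixtures of ~100 pure standards ran on a Zorbax Extend-C18 column (2.1 × 50 mm, 1.8 μm) at 100 μL/min, with water and acetonitrile each containing 0.1% formic acid and dead and dwell volumes of 40 μL and 900 μL. Retention time was read from adduct peaks picked by computer and checked manually.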

## Cc1ccc(CNC(=O)C2(C)CCCN(C(=O)Nc3ccc(Br)cc3)C2)cc1 (stereo not given)
  RP-LC retention time: 1040 s

## Cc1ccc(S(=O)(=O)N2CCC(CC(=O)NC(C)Cc3ccco3)CC2)cc1 (stereo not given)
  RP-LC retention time: 907 s

## C=CCN1C[C@H](C)N([C@H](c2ccccc2)c2ccc(C(=O)N(CC)CC)cc2)C[C@H]1C
  RP-LC retention time: 702 s

## CC1CC(=O)Nc2ccccc2N1C(=O)COc1ccc(Cl)cc1Cl (stereo not given)
  RP-LC retention time: 844 s

## Cc1cc2n(n1)CCCN2C(=O)CCC(=O)N1CCN(c2cc(Cl)ccc2C)CC1
  RP-LC retention time: 852 s

## Cc1ccc(C)c(C(=O)NCc2ccc3c(c2)ncn3C)c1
  RP-LC retention time: 604 s

## COc1ccc2[nH]c(=O)c(CCC(=O)NCCCN3CCCC3=O)cc2c1
  RP-LC retention time: 592 s

## CCCNC(=O)C1Cn2cccc2C(=O)N1 (stereo not given)
  RP-LC retention time: 581 s

## Cc1ccc(Cn2c(=O)c3sccc3n(Cc3nc(-c4ccc(C)cc4)no3)c2=O)cc1
  RP-LC retention time: 1140 s

## CCOc1ccc(CCNC(=O)C2CCCN(c3ncnc4c3nc3n4CCCCC3)C2)cc1 (stereo not given)
  RP-LC retention time: 807 s

## O=C(NCCC1=CCCCC1)C1CCN(c2cncnc2N2CCOCC2)CC1
  RP-LC retention time: 656 s

## Cc1ccc(-c2cc3c(=O)n(Cc4nc(-c5ccc(Cl)cc5)no4)ncn3n2)c(C)c1
  RP-LC retention time: 1320 s

## COC(=O)c1ccc(NC(=O)CSc2nnc(CN3CCOCC3)o2)cc1
  RP-LC retention time: 576 s

## Cc1c(CC(=O)N2CCN(c3cccc(Cl)c3)CC2)c2c(=O)n(C)c(=O)n(C)c2n1C
  RP-LC retention time: 790 s

## CCOc1ccccc1C(=O)N1CCC2(CC1)NC(=O)c1ccc(Cl)cc1N2
  RP-LC retention time: 790 s

## COCCNS(=O)(=O)c1cc2c(cc1C)CCN2C(C)=O
  RP-LC retention time: 657 s

## CCn1cc(C(=O)Nc2ccccc2C)c(=O)c2ccc(C)nc21
  RP-LC retention time: 1090 s

## Cn1c(=O)sc2cc(S(=O)(=O)N3CCC(C(=O)NCCc4ccccc4)CC3)ccc21
  RP-LC retention time: 830 s

## COc1nn(C)cc1C(=O)Nc1nnc(C)s1
  RP-LC retention time: 583 s

## CCOc1ccc(CNC(=O)C2CCN(C(=O)C3Sc4ccccc4NC3=O)CC2)cc1OC (stereo not given)
  RP-LC retention time: 712 s

## CCc1nc(-c2csc(S(=O)(=O)N3CCCC(C(=O)NC4CCCC4)C3)c2)no1 (stereo not given)
  RP-LC retention time: 937 s

## O=C(NCc1csc(-c2cccs2)n1)C1CCN(C(=O)c2cccc(Cl)c2)CC1
  RP-LC retention time: 802 s

## Cc1cc(N2CCCC2)n2nc(CN3CCN(c4ccccc4F)CC3)nc2n1
  RP-LC retention time: 622 s

## CCc1noc2nc(C)n(CC(=O)NCc3ccc(F)cc3)c(=O)c12
  RP-LC retention time: 797 s

## C#Cc1cccc(NC(=O)c2ccc(Cl)cc2Cl)c1
  RP-LC retention time: 1060 s

## CN(CCc1noc(-c2ccc(C(=O)N3CCOCC3)cc2)n1)C(=O)Cc1ccc(Cl)cc1
  RP-LC retention time: 757 s

## COc1ccc(N2CCN(c3nc(C(=O)NCCN(C)C)cs3)CC2)cc1
  RP-LC retention time: 618 s

## CCc1nc2ccccc2c(=O)n1Cc1noc(-c2ccccc2OC)n1
  RP-LC retention time: 919 s

## Cc1c(C)n(-c2ccc(Cl)cc2)c2ncn(CC(=O)NC3CCCCC3)c(=O)c12
  RP-LC retention time: 644 s

## Cc1cc2oc(C(=O)NCCc3nc(-c4ccccc4)no3)c(C)c2cc1C
  RP-LC retention time: 1210 s

## CCOC(=O)c1cn(CC(=O)Nc2ccc(Br)cc2)c2nc(C)ccc2c1=O
  RP-LC retention time: 821 s

## CC(C)N1CCN(Cc2nc(-c3ccc(N4CCSCC4)nc3)no2)CC1
  RP-LC retention time: 614 s

## CCN(CC)C(=O)N1CC(Oc2cccc(-c3nc(C)no3)c2)C1
  RP-LC retention time: 873 s

## Cc1cccc(/C=C/c2ccccc2)n1
  RP-LC retention time: 664 s

## O=C(c1cccc(Br)c1)N1CCN(CCn2cccn2)CC1
  RP-LC retention time: 554 s

## O=C(NCC1CCCO1)c1ccc(-c2cnc(Oc3ccccc3)nc2)cc1 (stereo not given)
  RP-LC retention time: 779 s

## O=C(Cn1cccc1-c1nc(-c2ccc(F)cc2)no1)N1CCc2ccccc21
  RP-LC retention time: 1140 s

## Cc1[nH]c(C(=O)N2CCC(CC(=O)NCC3CCCO3)CC2)c(C)c1C(=O)OC(C)C (stereo not given)
  RP-LC retention time: 682 s

## COCC(=O)NCC12CCC=C1N(C)C(=O)CC2 (stereo not given)
  RP-LC retention time: 618 s

## Cc1ccc(Nc2c(-c3ccccc3)nc3ccccn23)cc1
  RP-LC retention time: 694 s

## CCOc1cccc(CNC(=O)c2c(C)sc3ccn(C)c(=O)c23)c1
  RP-LC retention time: 804 s

## O=C(NCC#CCN1CCc2ccccc2C1)c1ccc2cc[nH]c2c1
  RP-LC retention time: 579 s

## COCCCNC(=O)C1c2ccccc2CC(=O)N1Cc1ccccc1 (stereo not given)
  RP-LC retention time: 789 s

## Nc1nc(N2CCOCC2)ncc1C(=O)NCc1ccccc1F
  RP-LC retention time: 626 s

## COc1ccc(-c2cc(C(=O)N3CCN(S(=O)(=O)c4ccc(Cl)cc4)CC3)[nH]n2)cc1
  RP-LC retention time: 909 s

## Cc1noc(-c2cccnc2N2CCCN(Cc3ccc(F)cc3)CC2)n1
  RP-LC retention time: 634 s

## COCCN1C(=O)CC[C@]2(C(=O)NCc3ccccc3Cl)CCCC[C@@H]12
  RP-LC retention time: 730 s

## CCCNC(=O)N1CCCN(C2=NS(=O)(=O)C(c3ccc(F)cc3)=C2C)CC1
  RP-LC retention time: 861 s

## COc1ccccc1-c1noc(C2CCCN2C(=O)Nc2cccc(SC)c2)n1 (stereo not given)
  RP-LC retention time: 908 s

## COc1ccc(C(=O)NC2CCN(c3ccc(=O)[nH]n3)C2)c(OC)n1 (stereo not given)
  RP-LC retention time: 660 s

## CC1CCN(C(=O)CN2c3ccc(F)cc3-c3ccccc3S2(=O)=O)CC1
  RP-LC retention time: 982 s

## CCCNC(=O)c1ncn2c1C(=O)N(CCC)C(C)(C(=O)NCc1ccc(C)cc1)C2 (stereo not given)
  RP-LC retention time: 750 s

## Cc1csc(NC(=O)CSc2nn3c(=O)c(C)nnc3s2)n1
  RP-LC retention time: 613 s

## Cc1cccc(NC(=O)Cn2nc(N3CCCC(C)C3)c3ccccc3c2=O)c1 (stereo not given)
  RP-LC retention time: 1090 s

## COc1cc(N2C=C(C(=O)N3CCCCC3)S(=O)(=O)c3ccccc32)cc(OC)c1OC
  RP-LC retention time: 812 s

## Cc1ccc(C(=O)c2cnc3cc4c(cc3c2N2CCOCC2)OCO4)cc1C
  RP-LC retention time: 714 s

## O=C(NCc1cccnc1)c1nc(CCS(=O)(=O)c2ccccc2)no1
  RP-LC retention time: 593 s

## O=C(c1ccccc1)N1CCc2ccc(NS(=O)(=O)c3cccs3)cc2C1
  RP-LC retention time: 759 s

## Cc1noc(C)c1Cc1ccc(C(=O)N2CCCCCCN(C)C(=O)[C@@H]3CCC[C@@H]32)o1
  RP-LC retention time: 814 s

## Cc1ccc(S(=O)(=O)N2C[C@@H]3C[C@H]2C[C@@H]3NC(=O)c2ccccc2)cc1Cl
  RP-LC retention time: 946 s

## CN(CC1(C)CCOCC1)S(=O)(=O)c1cccc(C(F)(F)F)c1
  RP-LC retention time: 980 s

## Cc1ccc(-c2nc(-c3ccnc(N4CCCC4)c3)no2)s1
  RP-LC retention time: 733 s

## CCC(C)NC(=O)C1CCN(S(=O)(=O)c2cc(C(=O)N3CCCC3)n(C)c2)CC1 (stereo not given)
  RP-LC retention time: 660 s

## O=C(Cc1cccc(F)c1)NC(c1ccccc1)c1nnc(N2CCCC2)o1 (stereo not given)
  RP-LC retention time: 771 s

## CC1CC(=O)c2cnc(N3CCN(c4ncccn4)CC3)nc2C1 (stereo not given)
  RP-LC retention time: 798 s

## COC(=O)c1ccc(NC(=O)c2oc(C)nc2C)cc1
  RP-LC retention time: 658 s

## Cc1nnc2ccc(N3CCN(C(=O)COc4ccc5c(c4)OCO5)CC3)nn12
  RP-LC retention time: 617 s

## O=C(c1cc(-c2ccncc2)n[nH]1)N1CCN(C(=O)C2(c3ccccc3)CC2)CC1
  RP-LC retention time: 590 s

## Clc1ccc(-c2csc(Cc3nc(-c4ccc5c(c4)OCO5)no3)n2)cc1
  RP-LC retention time: 1200 s

## O=C(Cc1cccc(F)c1)N1CCN(C(=O)c2nnn3c2COC(c2ccccc2)C3)CC1 (stereo not given)
  RP-LC retention time: 854 s

## CNC(=O)C1CCN(c2nc3ccc(-c4ccc(OC)cc4)nc3s2)CC1
  RP-LC retention time: 771 s

## COc1cccc(C(=O)Nc2ccc3c(c2)Sc2ncccc2C(=O)N3C(C)C)c1OC
  RP-LC retention time: 915 s

## Cc1cc(C)cc(C(=O)N2CCCC(C(=O)NC3CCCCCCC3)C2)c1 (stereo not given)
  RP-LC retention time: 1040 s

## COc1ccc(-c2ccnn2-c2ccc(SCc3ccc(C)cc3)nn2)cc1
  RP-LC retention time: 1420 s

## COC(=O)c1cccc(N2C=C(C(=O)N3CCCC3)S(=O)(=O)c3ccc(F)cc32)c1
  RP-LC retention time: 788 s

## CCn1nc(CNC(=O)c2cc(C)cc(C)c2)c2ccccc21
  RP-LC retention time: 938 s

## Cc1ccc(-c2cc(NC(=O)Cc3ccsc3)on2)s1
  RP-LC retention time: 966 s

## c1cncc(CN2CCCC(OCc3nc(-c4ccncc4)no3)C2)c1 (stereo not given)
  RP-LC retention time: 557 s

## CCCN1C(=O)COc2ccc(-c3csc(NC(=O)c4ccc(C)cc4)n3)cc21
  RP-LC retention time: 1080 s

## Cc1ccc(CC(=O)NCc2c(C)noc2C)cc1
  RP-LC retention time: 742 s

## CC(=O)N1CCN(c2nc(CC(C)C)c3c(c2C#N)CC(C)(C)OC3)CC1
  RP-LC retention time: 1060 s

## COc1ccc(Nc2c(-c3ccc4c(c3)OCO4)nc3cnccn23)cc1OC
  RP-LC retention time: 709 s

## Cc1cc(C)n(-c2nc(C)c(C(=O)Nc3cccc(C(F)(F)F)c3)s2)n1
  RP-LC retention time: 1260 s

## O=C(NCCN1CCOCC1)c1cc2n(n1)CCCN(Cc1ccc(F)cc1)C2=O
  RP-LC retention time: 606 s

## O=C(Nc1ccc2c(c1)OCCO2)N1CCC(Cc2nc(-c3ccncc3)n[nH]2)C1 (stereo not given)
  RP-LC retention time: 580 s

## O=C(NCCOCCOCCNC(=O)Nc1ccccc1)Nc1ccccc1
  RP-LC retention time: 679 s

## CCc1nc2ccccc2n1CC(O)COc1cc(C)cc(C)c1 (stereo not given)
  RP-LC retention time: 733 s

## O=C(CC1CCCN(c2cn[nH]c(=O)c2)C1)N1CCC2(CC1)OCCO2 (stereo not given)
  RP-LC retention time: 604 s

## CN1C(=O)c2cc(C(=O)NCc3ccccc3F)nn2CC1(C)C(=O)NC1CCCCC1 (stereo not given)
  RP-LC retention time: 785 s

## Cc1cc2nn(CC(=O)Nc3cccc(C)c3C)c(=O)n2c(-c2ccc(F)cc2)n1
  RP-LC retention time: 849 s
